# Laboratory results reported in patent publication US10160747B2, “Compounds and methods for kinase modulation, and indications therefor” (Plexxikon Inc., priority 2016, dated 2018).
# Biological target: T1, BA/F3-FLT3-ITD + D835Y (Homo sapiens, UniProt P36888, D835Y, cells depend on it, form not given)
# T1 sequence (P36888 with tags, fused parts or gaps INS600HVDFREYEYD/D835Y): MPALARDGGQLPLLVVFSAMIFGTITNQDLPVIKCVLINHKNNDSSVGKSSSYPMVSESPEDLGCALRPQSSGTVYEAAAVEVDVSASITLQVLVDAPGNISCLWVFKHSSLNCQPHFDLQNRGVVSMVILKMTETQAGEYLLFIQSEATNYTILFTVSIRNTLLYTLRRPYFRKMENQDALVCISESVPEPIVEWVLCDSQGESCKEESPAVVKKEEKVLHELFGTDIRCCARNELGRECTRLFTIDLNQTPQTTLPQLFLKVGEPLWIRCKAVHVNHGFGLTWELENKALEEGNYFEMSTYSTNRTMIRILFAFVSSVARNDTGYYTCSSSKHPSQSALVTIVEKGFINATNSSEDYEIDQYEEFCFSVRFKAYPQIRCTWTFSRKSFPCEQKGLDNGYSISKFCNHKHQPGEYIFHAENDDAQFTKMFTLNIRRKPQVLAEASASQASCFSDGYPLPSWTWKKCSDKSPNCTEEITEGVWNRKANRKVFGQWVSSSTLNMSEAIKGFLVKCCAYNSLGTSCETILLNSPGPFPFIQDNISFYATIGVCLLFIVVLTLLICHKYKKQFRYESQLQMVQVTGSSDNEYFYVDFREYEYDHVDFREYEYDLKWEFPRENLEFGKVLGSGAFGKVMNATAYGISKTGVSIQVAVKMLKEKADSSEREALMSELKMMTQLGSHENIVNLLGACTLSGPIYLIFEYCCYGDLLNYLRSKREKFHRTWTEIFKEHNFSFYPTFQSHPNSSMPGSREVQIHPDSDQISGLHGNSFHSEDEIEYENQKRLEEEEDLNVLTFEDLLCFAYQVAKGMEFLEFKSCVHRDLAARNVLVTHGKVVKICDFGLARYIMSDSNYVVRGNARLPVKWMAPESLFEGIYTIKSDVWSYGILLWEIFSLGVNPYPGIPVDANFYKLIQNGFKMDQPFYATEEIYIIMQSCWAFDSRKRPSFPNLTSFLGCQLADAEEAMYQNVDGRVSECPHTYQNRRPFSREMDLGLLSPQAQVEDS
# Experiment: Engineered BA/F3 cell growth assay, FLT3 ITD/D835Y
# Format: cell-based, murine
# Settings: 3 d growth
# Procedure, shortened: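 Murine Ba/F3 cells transfected with full-length FLT3 ITD/D835Y, grown without IL-3 so growth depends on FLT3. Seeded at 1×10^4 cells/well, 8-point 1:3 series to 1 μM top (0.2% DMSO), 3 days at 37 °C. CellTiter-Glo luminescence (ATP) versus concentration gave IC50.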
row,SMILES,GI50 [µM]
1,"Cn1cnc(Nc2ncc(-c3ccc(CC(=O)Nc4cncc(C(F)(F)F)c4)c(F)c3)cn2)c1 [Compound P-0052, 2-[2-fluoro-4-[2-[(1-methylimidazol-4-yl)amino]pyrimidin-5-yl]phenyl]-N-[5-(trifluoromethyl)-3-pyridyl]acetamide]",0.0001 to 10
2,"O=C(Cc1ccc(-c2cnc(Nc3cnn4ccccc34)nc2)cc1F)Nc1cncc(C(F)(F)F)c1 [Compound P-0058, 2-[2-fluoro-4-[2-(pyrazolo[1,5-a]pyridin-3-ylamino)pyrimidin-5-yl]phenyl]-N-[5-(trifluoromethyl)-3-pyridyl]acetamide]",0.0001 to 10
3,"O=C(Cc1ccc(-c2cnc3c(c2)C2(CC2)C(=O)N3)cc1F)Nc1cncc(C(F)(F)F)c1 [Compound P-0064, 2-(2-fluoro-4-(2′-oxo-1′,2′-dihydrospiro[cyclopropane-1,3′-pyrrolo[2,3-b]pyridin]-5′-yl)phenyl)-N-(5-(trifluoromethyl)pyridin-3-yl)acetamide]",0.0001 to 10
4,"Cc1ncc(NC(=O)Cc2ccc(-c3cnc(Nc4cnn5ccccc45)nc3)cc2F)cc1C(F)(F)F [Compound P-0065, 2-(2-fluoro-4-(2-(pyrazolo[1,5-a]pyridin-3-ylamino)pyrimidin-5-yl)phenyl)-N-(6-methyl-5-(trifluoromethyl)pyridin-3-yl)acetamide]",0.0001 to 10
5,"CCC(=O)c1c[nH]c2ncc(-c3ccc(CC(=O)Nc4cncc(C(F)(F)F)c4)c(F)c3)cc12 [Compound P-0068, 2-[2-fluoro-4-(3-propanoyl-1H-pyrrolo[2,3-b]pyridin-5-yl)phenyl]-N-[5-(trifluoromethyl)-3-pyridyl]acetamide]",0.0001 to 10
6,"O=C(Cc1ccc(-c2cnc(Nc3cnn4ccccc34)nc2)c(F)c1)Nc1cncc(C(F)(F)F)c1 [Compound P-0071, 2-[3-fluoro-4-[2-(pyrazolo[1,5-a]pyridin-3-ylamino)pyrimidin-5-yl]phenyl]-N-[5-(trifluoromethyl)-3-pyridyl]acetamide]",0.0001 to 10
7,"O=C(Cc1ccc(-c2cnc3[nH]nc(C4CC4)c3c2)cc1F)Nc1cncc(C(F)(F)F)c1 [Compound P-0072, 2-[4-(3-cyclopropyl-1H-pyrazolo[3,4-b]pyridin-5-yl)-2-fluoro-phenyl]-N-[5-(trifluoromethyl)-3-pyridyl]acetamide]",0.0001 to 10
8,"O=C(Cc1ccc(-c2cnc3[nH]nc(C4CC4)c3c2)cc1)Nc1cncc(C(F)(F)F)c1 [Compound P-0073, 2-[4-(3-cyclopropyl-1H-pyrazolo[3,4-b]pyridin-5-yl)phenyl]-N-[5-(trifluoromethyl)-3-pyridyl]acetamide]",0.0001 to 10
9,"O=C(Cc1ccc(-c2cnc(Nc3cnn4ccccc34)nc2)cc1)Nc1cncc(C(F)(F)F)c1 [Compound P-0074, 2-[4-[2-(pyrazolo[1,5-a]pyridin-3-ylamino)pyrimidin-5-yl]phenyl]-N-[5-(trifluoromethyl)-3-pyridyl]acetamide]",0.0001 to 10
10,"O=C(Cc1cc(F)c(-c2cnc(Nc3cnn4ccccc34)nc2)cc1F)Nc1cncc(C(F)(F)F)c1 [Compound P-0075, 2-[2,5-difluoro-4-[2-(pyrazolo[1,5-a]pyridin-3-ylamino)pyrimidin-5-yl]phenyl]-N-[5-(trifluoromethyl)-3-pyridyl]acetamide]",0.0001 to 10
11,"Cn1cnc(Nc2ncc(-c3cc(F)c(CC(=O)Nc4cncc(C(F)(F)F)c4)cc3F)cn2)c1 [Compound P-0078, 2-(2,5-difluoro-4-(2-((1-methyl-1H-imidazol-4-yl)amino)pyrimidin-5-yl)phenyl)-N-(5-(trifluoromethyl)pyridin-3-yl)acetamide]",0.0001 to 10
12,"Cn1cc(Nc2ncc(-c3ccc(CC(=O)Nc4cncc(C5CC5)c4)c(F)c3)cn2)cn1 [Compound P-0081, N-(5-cyclopropyl-3-pyridyl)-2-[2-fluoro-4-[2-[(1-methylpyrazol-4-yl)amino]pyrimidin-5-yl]phenyl]acetamide]",0.0001 to 10

# The remaining lines, values ahead:
row,GI50 [µM],SMILES
1,0.0001 to 10,"O=C(Cc1ccc(-c2cnc3[nH]cc(F)c3c2)cc1F)Nc1cncc(C(F)(F)F)c1 [Compound P-0053, 2-[2-fluoro-4-(3-fluoro-1H-pyrrolo[2,3-b]pyridin-5-yl)phenyl]-N-[5-(trifluoromethyl)-3-pyridyl]acetamide]"
2,0.0001 to 10,"CC(=O)c1c[nH]c2ncc(-c3ccc(CC(=O)Nc4cncc(C(F)(F)F)c4)c(F)c3)cc12 [Compound P-0055, 2-[4-(3-acetyl-1H-pyrrolo[2,3-b]pyridin-5-yl)-2-fluoro-phenyl]-N-[5-(trifluoromethyl)-3-pyridyl]acetamide]"
3,0.0001 to 10,"Cc1ncc(NC(=O)Cc2ccc(-c3cnc4c(c3)C3(CC3)C(=O)N4)cc2F)cc1C(F)(F)F [Compound P-0057, 2-[2-fluoro-4-(2-oxospiro[1H-pyrrolo[2,3-b]pyridine-3,1′-cyclopropane]-5-yl)phenyl]-N-[6-methyl-5-(trifluoromethyl)-3-pyridyl]acetamide]"
4,0.0001 to 10,"Cc1ncc(NC(=O)Cc2ccc(-c3cnc4[nH]cc(Cl)c4n3)cc2F)cc1C(F)(F)F [Compound P-0059, 2-[4-(7-chloro-5H-pyrrolo[2,3-b]pyrazin-2-yl)-2-fluoro-phenyl]-N-[6-methyl-5-(trifluoromethyl)-3-pyridyl]acetamide]"
5,0.0001 to 10,"O=C(Cc1ccc(-c2cnc3[nH]cc(Cl)c3n2)cc1F)Nc1cnc(Cl)c(C(F)(F)F)c1 [Compound P-0060, 2-[4-(7-chloro-5H-pyrrolo[2,3-b]pyrazin-2-yl)-2-fluoro-phenyl]-N-[6-chloro-5-(trifluoromethyl)-3-pyridyl]acetamide]"
6,0.0001 to 10,"O=C(Cc1ccc(-c2cnc3[nH]cc(Cl)c3n2)cc1F)Nc1cncc(C(F)(F)F)c1 [Compound P-0061, 2-[4-(7-chloro-5H-pyrrolo[2,3-b]pyrazin-2-yl)-2-fluoro-phenyl]-N-[5-(trifluoromethyl)-3-pyridyl]acetamide]"
7,0.0001 to 10,"Cc1ncc(NC(=O)Cc2ccc(-c3cnc4[nH]cc(F)c4c3)cc2F)cc1C(F)(F)F [Compound P-0062, 2-[2-fluoro-4-(3-fluoro-1H-pyrrolo[2,3-b]pyridin-5-yl)phenyl]-N-[6-methyl-5-(trifluoromethyl)-3-pyridyl]acetamide]"
8,0.0001 to 10,"CC(=O)c1c[nH]c2ncc(-c3ccc(CC(=O)Nc4cnc(C)c(C(F)(F)F)c4)c(F)c3)cc12 [Compound P-0063, 2-[4-(3-acetyl-1H-pyrrolo[2,3-b]pyridin-5-yl)-2-fluoro-phenyl]-N-[6-methyl-5-(trifluoromethyl)-3-pyridyl]acetamide]"
9,0.0001 to 10,"Cc1ncc(NC(=O)Cc2ccc(-c3cnc4[nH]nc(C5CC5)c4c3)cc2F)cc1C(F)(F)F [Compound P-0066, 2-(4-(3-cyclopropyl-1H-pyrazolo[3,4-b]pyridin-5-yl)-2-fluorophenyl)-N-(6-methyl-5-(trifluoromethyl)pyridin-3-yl)acetamide]"
10,0.0001 to 10,"Cc1ncc(NC(=O)Cc2ccc(-c3cnc4[nH]c(Cl)cc4c3)cc2F)cc1C(F)(F)F [Compound P-0067, 2-[4-(2-chloro-1H-pyrrolo[2,3-b]pyridin-5-yl)-2-fluoro-phenyl]-N-[6-methyl-5-(trifluoromethyl)-3-pyridyl]acetamide]"
11,0.0001 to 10,"CCC(=O)c1c[nH]c2ncc(-c3ccc(CC(=O)Nc4cnc(C)c(C(F)(F)F)c4)c(F)c3)cc12 [Compound P-0070, 2-[2-fluoro-4-(3-propanoyl-1H-pyrrolo[2,3-b]pyridin-5-yl)phenyl]-N-[6-methyl-5-(trifluoromethyl)-3-pyridyl]acetamide]"
12,0.0001 to 10,"Cc1ncc(NC(=O)Cc2ccc(-c3cnc(Nc4cnn(C)c4C)nc3)cc2F)cc1C(F)(F)F [Compound P-0076, 2-[4-[2-[(1,5-dimethylpyrazol-4-yl)amino]pyrimidin-5-yl]-2-fluoro-phenyl]-N-[6-methyl-5-(trifluoromethyl)-3-pyridyl]acetamide]"
13,0.0001 to 10,"Cc1nn(C)cc1Nc1ncc(-c2ccc(CC(=O)Nc3cnc(C)c(C(F)(F)F)c3)c(F)c2)cn1 [Compound P-0077, 2-[4-[2-[(1,3-dimethylpyrazol-4-yl)amino]pyrimidin-5-yl]-2-fluoro-phenyl]-N-[6-methyl-5-(trifluoromethyl)-3-pyridyl]acetamide]"
14,0.0001 to 10,"Cc1ncc(NC(=O)Cc2ccc(-c3cnc4[nH]cc(Cl)c4n3)cc2)cc1C(F)(F)F [Compound P-0079, 2-(4-(7-chloro-5H-pyrrolo[2,3-b]pyrazin-2-yl)phenyl)-N-(6-methyl-5-(trifluoromethyl)pyridin-3-yl)acetamide]"
